Results reported in ChEMBL document CHEMBL1132731, “Synthesis and antibacterial activities of novel C(3)-aminopyrimidinyl substituted cephalosporins including against respiratory tract pathogens” (2000).
In brackets after ≈: the same amount, converted by molar mass.

How the values were obtained:
Format in all cases: functional
[1] = Minimal inhibitory concentration against Enterococcus faecalis 29212
Escherichia coli = experiment: Minimal inhibitory concentration against Escherichia coli 3190Y
Staphylococcus aureus [2] = experiment: Minimal inhibitory concentration against methicillin resistant Staphylococcus aureus 77
Staphylococcus aureus [3] = experiment: Minimal inhibitory concentration against methicillin susceptible Staphylococcus aureus giorgio
Klebsiella pneumoniae = experiment: Minimal inhibitory concentration against Klebsiella pneumonia 2011E
[4] = Minimal inhibitory concentration against Haemophilus influenza HIN003, beta lactamase producing resistant strain; conditions: Haemophilus influenzae
[5] = Minimal inhibitory concentration against Moraxella catarrhalis 25240
[6] = Minimal inhibitory concentration against Proteus vulgaris 6059
Streptococcus pneumoniae = experiment: Minimal inhibitory concentration against Streptococcus pneumonia PN010, penicillin resistant

Compound	MIC [1]	MIC (Escherichia coli)	MIC (Staphylococcus aureus [2])	MIC (Staphylococcus aureus [3])	MIC (Klebsiella pneumoniae)	MIC [4]	MIC [5]	MIC [6]	MIC (Streptococcus pneumoniae)
Nc1cc(SCSC2=C(C(=O)O)N3C(=O)C(NC(=O)/C(=N\O)c4nc(N)sc4Cl)C3SC2)nc(N)n1 (configuration not stated)	1 mg/L (≈ 1.69 µM)	0.25 mg/L (≈ 0.424 µM)	1 mg/L (≈ 1.69 µM)	0.13 mg/L (≈ 0.22 µM)	1 mg/L (≈ 1.69 µM)	0.5 mg/L (≈ 0.847 µM)	0.13 mg/L (≈ 0.22 µM)	0.25 mg/L (≈ 0.424 µM)	0.25 mg/L (≈ 0.424 µM)
Nc1nc(O)cc(SC2=C(C(=O)O)N3C(=O)C(NC(=O)/C(=N\O)c4csc(N)n4)C3SC2)n1 (configuration not stated)	4 mg/L (≈ 7.83 µM)	0.5 mg/L (≈ 0.979 µM)	4 mg/L (≈ 7.83 µM)	0.5 mg/L (≈ 0.979 µM)	8 mg/L (≈ 15.7 µM)	1 mg/L (≈ 1.96 µM)	< 0.008 mg/L	0.5 mg/L (≈ 0.979 µM)	1 mg/L (≈ 1.96 µM)
Nc1cc(SC2=C(C(=O)O)N3C(=O)C(NC(=O)/C(=N\O)c4csc(N)n4)C3SC2)nc(N)n1 (configuration not stated)	8 mg/L (≈ 15.7 µM)	0.031 mg/L (≈ 0.0608 µM)	2 mg/L (≈ 3.92 µM)	0.25 mg/L (≈ 0.491 µM)	1 mg/L (≈ 1.96 µM)	0.13 mg/L (≈ 0.255 µM)	< 0.008 mg/L	0.031 mg/L (≈ 0.0608 µM)	0.5 mg/L (≈ 0.981 µM)
C=CC1=C(C(=O)O)N2C(=O)[C@@H](NC(=O)/C(=N\O)c3csc(N)n3)[C@H]2SC1 [CEFDINIR]	8 mg/L (≈ 20.2 µM)	0.031 mg/L (≈ 0.0784 µM)	4 mg/L (≈ 10.1 µM)	0.063 mg/L (≈ 0.159 µM)	0.13 mg/L (≈ 0.329 µM)	0.5 mg/L (≈ 1.26 µM)	0.5 mg/L (≈ 1.26 µM)	0.031 mg/L (≈ 0.0784 µM)	4 mg/L (≈ 10.1 µM)
Nc1ccnc(SCSC2=C(C(=O)O)N3C(=O)C(NC(=O)/C(=N\O)c4nc(N)sc4Cl)C3SC2)n1 (configuration not stated)	2 mg/L (≈ 3.48 µM)	1 mg/L (≈ 1.74 µM)	2 mg/L (≈ 3.48 µM)	0.25 mg/L (≈ 0.435 µM)	8 mg/L (≈ 13.9 µM)	0.25 mg/L (≈ 0.435 µM)	0.5 mg/L (≈ 0.869 µM)	0.5 mg/L (≈ 0.869 µM)	1 mg/L (≈ 1.74 µM)
Nc1nc(O)cc(SCSC2=C(C(=O)O)N3C(=O)C(NC(=O)/C(=N\O)c4nc(N)sc4Cl)C3SC2)n1 (configuration not stated)	1 mg/L (≈ 1.69 µM)	0.25 mg/L (≈ 0.423 µM)	1 mg/L (≈ 1.69 µM)	0.13 mg/L (≈ 0.22 µM)	2 mg/L (≈ 3.38 µM)	0.031 mg/L (≈ 0.0524 µM)	0.063 mg/L (≈ 0.107 µM)	0.13 mg/L (≈ 0.22 µM)	0.5 mg/L (≈ 0.846 µM)
C#CCO/N=C(\C(=O)NC1C(=O)N2C(C(=O)O)=C(Sc3cc(N)nc(N)n3)CSC12)c1csc(N)n1 (configuration not stated)	32 mg/L (≈ 58.4 µM)	0.13 mg/L (≈ 0.237 µM)	4 mg/L (≈ 7.3 µM)	0.5 mg/L (≈ 0.913 µM)	2 mg/L (≈ 3.65 µM)	0.031 mg/L (≈ 0.0566 µM)	0.016 mg/L (≈ 0.0292 µM)	0.031 mg/L (≈ 0.0566 µM)	0.25 mg/L (≈ 0.457 µM)
Nc1cc(N)nc(SCSC2=C(C(=O)O)N3C(=O)C(NC(=O)/C(=N\O)c4csc(N)n4)C3SC2)n1 (configuration not stated)	4 mg/L (≈ 7.2 µM)	0.063 mg/L (≈ 0.113 µM)	1 mg/L (≈ 1.8 µM)	0.13 mg/L (≈ 0.234 µM)	0.5 mg/L (≈ 0.9 µM)	1 mg/L (≈ 1.8 µM)	1 mg/L (≈ 1.8 µM)	0.031 mg/L (≈ 0.0558 µM)	1 mg/L (≈ 1.8 µM)
Nc1cc(N)nc(SCSC2=C(C(=O)O)N3C(=O)C(NC(=O)/C(=N\O)c4nc(N)sc4Cl)C3SC2)n1 (configuration not stated)	4 mg/L (≈ 6.78 µM)	1 mg/L (≈ 1.69 µM)	4 mg/L (≈ 6.78 µM)	0.5 mg/L (≈ 0.847 µM)	8 mg/L (≈ 13.6 µM)	0.016 mg/L (≈ 0.0271 µM)	0.13 mg/L (≈ 0.22 µM)	1 mg/L (≈ 1.69 µM)	1 mg/L (≈ 1.69 µM)
Nc1cc(SCSC2=C(C(=O)O)N3C(=O)C(NC(=O)/C(=N\O)c4csc(N)n4)C3SC2)nc(N)n1 (configuration not stated)	1 mg/L (≈ 1.8 µM)	0.031 mg/L (≈ 0.0558 µM)	1 mg/L (≈ 1.8 µM)	0.13 mg/L (≈ 0.234 µM)	0.5 mg/L (≈ 0.9 µM)	0.5 mg/L (≈ 0.9 µM)	2 mg/L (≈ 3.6 µM)	0.031 mg/L (≈ 0.0558 µM)	0.5 mg/L (≈ 0.9 µM)
CCO/N=C(\C(=O)NC1C(=O)N2C(C(=O)O)=C(Sc3cc(N)nc(N)n3)CSC12)c1csc(N)n1 (configuration not stated)	64 mg/L (≈ 119 µM)	0.13 mg/L (≈ 0.242 µM)	4 mg/L (≈ 7.44 µM)	0.5 mg/L (≈ 0.93 µM)	2 mg/L (≈ 3.72 µM)	0.063 mg/L (≈ 0.117 µM)	< 0.008 mg/L	0.063 mg/L (≈ 0.117 µM)	0.5 mg/L (≈ 0.93 µM)
CO/N=C(\C(=O)NC1C(=O)N2C(C(=O)O)=C(SCSc3cc(N)nc(N)n3)CSC12)c1csc(N)n1 (configuration not stated)	64 mg/L (≈ 112 µM)	0.063 mg/L (≈ 0.111 µM)	4 mg/L (≈ 7.02 µM)	0.25 mg/L (≈ 0.439 µM)	0.5 mg/L (≈ 0.878 µM)	1 mg/L (≈ 1.76 µM)	0.5 mg/L (≈ 0.878 µM)	0.016 mg/L (≈ 0.0281 µM)	0.13 mg/L (≈ 0.228 µM)
CO/N=C(\C(=O)NC1C(=O)N2C(C(=O)O)=C(Sc3cc(N)nc(N)n3)CSC12)c1csc(N)n1 (configuration not stated)	> 64 mg/L	0.031 mg/L (≈ 0.0592 µM)	4 mg/L (≈ 7.64 µM)	0.5 mg/L (≈ 0.955 µM)	0.5 mg/L (≈ 0.955 µM)	0.016 mg/L (≈ 0.0306 µM)	< 0.008 mg/L	0.016 mg/L (≈ 0.0306 µM)	0.5 mg/L (≈ 0.955 µM)
Nc1nc(O)cc(SC2=C(C(=O)O)N3C(=O)C(NC(=O)/C(=N\O)c4nc(N)sc4Cl)C3SC2)n1 (configuration not stated)	8 mg/L (≈ 14.7 µM)	0.063 mg/L (≈ 0.116 µM)	2 mg/L (≈ 3.67 µM)	0.25 mg/L (≈ 0.459 µM)	1 mg/L (≈ 1.83 µM)	0.016 mg/L (≈ 0.0294 µM)	–	0.063 mg/L (≈ 0.116 µM)	0.5 mg/L (≈ 0.917 µM)
Nc1cc(SC2=C(C(=O)O)N3C(=O)C(NC(=O)/C(=N\O)c4nc(N)sc4Cl)C3SC2)nc(N)n1 (configuration not stated)	2 mg/L (≈ 3.68 µM)	0.25 mg/L (≈ 0.46 µM)	2 mg/L (≈ 3.68 µM)	0.25 mg/L (≈ 0.46 µM)	2 mg/L (≈ 3.68 µM)	0.5 mg/L (≈ 0.919 µM)	< 0.008 mg/L	0.5 mg/L (≈ 0.919 µM)	1 mg/L (≈ 1.84 µM)
CCO/N=C(\C(=O)NC1C(=O)N2C(C(=O)O)=C(Sc3cc(N)nc(N)n3)CSC12)c1nsc(N)n1 (configuration not stated)	64 mg/L (≈ 119 µM)	0.063 mg/L (≈ 0.117 µM)	4 mg/L (≈ 7.43 µM)	1 mg/L (≈ 1.86 µM)	2 mg/L (≈ 3.71 µM)	0.13 mg/L (≈ 0.241 µM)	< 0.008 mg/L	0.063 mg/L (≈ 0.117 µM)	0.25 mg/L (≈ 0.464 µM)
Nc1nc(/C(=N/O)C(=O)NC2C(=O)N3C(C(=O)O)=C(SCSc4nc(O)nc(N)c4N)CSC23)c(Cl)s1 (configuration not stated)	4 mg/L (≈ 6.6 µM)	0.25 mg/L (≈ 0.412 µM)	4 mg/L (≈ 6.6 µM)	0.5 mg/L (≈ 0.825 µM)	1 mg/L (≈ 1.65 µM)	0.016 mg/L (≈ 0.0264 µM)	0.13 mg/L (≈ 0.214 µM)	0.25 mg/L (≈ 0.412 µM)	2 mg/L (≈ 3.3 µM)
